Molecular target: Factor D (Homo sapiens (Human), UniProt P00746)
Test: biochemical
Format: biochemical
Conditions: read-out: IC50

Chain of Factor D (P00746 26-253): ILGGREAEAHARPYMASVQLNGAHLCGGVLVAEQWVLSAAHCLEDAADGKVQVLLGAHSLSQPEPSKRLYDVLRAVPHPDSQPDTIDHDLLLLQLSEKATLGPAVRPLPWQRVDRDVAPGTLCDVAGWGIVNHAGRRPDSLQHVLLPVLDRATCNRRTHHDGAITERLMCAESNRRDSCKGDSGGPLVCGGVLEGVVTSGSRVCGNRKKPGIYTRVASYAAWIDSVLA

SMILES	IC50
NC(=O)n1cc(NC(=O)N2C[C@](F)(CO)C[C@H]2C(=O)NCc2cccc(Cl)c2F)c2ccccc21 [Example 356, 2S,4S)-4-Fluoro-4-hydroxymethyl-pyrrolidine-1,2-dicarboxylic acid 1-[(1-carbamoyl-1H-indol-3-yl)-amide]2-(3-chloro-2-fluoro-benzylamide]	480 nM
NC(=O)n1cc(NC(=O)N2[C@H]3C[C@@]3(CO)C[C@H]2C(=O)NCc2cccc(Cl)c2F)c2ccccc21 [Example 357, 1S,3S,5R)-5-Hydroxymethyl-2-aza-bicyclo[3.1.0]hexane-2,3-dicarboxylic acid 2-[(1-carbamoyl-1H-indol-3-yl)-amide]3-(3-chloro-2-fluoro-benzylamide]	389 nM
NC(=O)n1cc(NC(=O)N2[C@H](C(=O)NCc3cccc(Cl)c3F)C[C@@]3(CO)C[C@@H]23)c2ccccc21 [Example 358, 1R,3S,5S)-5-Hydroxymethyl-2-aza-bicyclo[3.1.0]hexane-2,3-dicarboxylic acid 2-[(1-carbamoyl-1H-indol-3-yl)-amide]3-(3-chloro-2-fluoro-benzylamide]	8 nM
NC(=O)n1cc(NC(=O)N2C[C@@H](C(F)F)C[C@H]2C(=O)NCc2cccc(Cl)c2F)c2ccccc21 [Example 359, 2S,4S)-4-Difluoromethyl-pyrrolidine-1,2-dicarboxylic acid 1-[(1-carbamoyl-1H-indol-3-yl)-amide]2-(3-chloro-2-fluoro-benzylamide]	250 nM
NC(=O)n1cc(NC(=O)N2[C@@H](CO)CC[C@H]2C(=O)Nc2cccc(OC(F)(F)F)c2)c2ccccc21 [Example 360, (2S,5R)-5-Hydroxymethyl-pyrrolidine-1,2-dicarboxylic acid 1-[(1-carbamoyl-1H-indol-3-yl)-amide]2-[(3-trifluoromethoxy-phenyl)-amide]]	1000 nM
NC(=O)n1cc(NC(=O)N2N=CCC2C(=O)NCc2cccc(Cl)c2)c2ccccc21 (stereo not shown) [Example 361, 4,5-Dihydro-pyrazole-1,5-dicarboxylic acid 1-[(1-carbamoyl-1H-indol-3-yl)-amide]5-(3-chloro-benzylamide)]	25 nM
O=C(Nc1cccc(OC(F)(F)F)c1)[C@@H]1CCCN1C(=O)Nc1cn(C(=O)CO)c2ccccc12 [Example 366, (S)-Pyrrolidine-1,2-dicarboxylic acid 1-{[1-(2-hydroxy-acetyl)-1H-indol-3-yl]-amide}2-[(3-trifluoromethoxy-phenyl)-amide]]	3250 nM
CC(=O)n1cc(NC(=O)N2CCC[C@H]2C(=O)Nc2cccc(OC(F)(F)F)c2)c2ccc(C#N)cc21 [Example 367, (S)-Pyrrolidine-1,2-dicarboxylic acid 1-[(1-acetyl-6-cyano-1H-indol-3-yl)-amide]2-[(3-trifluoromethoxy-phenyl)-amide]]	7950 nM
CC(=O)n1cc(NC(=O)N2C[C@H](F)C[C@H]2C(=O)NCc2cccc(Cl)c2F)c2ccc(OC(F)F)cc21 [Example 368, 2S,4R)-4-Fluoro-pyrrolidine-1,2-dicarboxylic acid 1-[(1-acetyl-6-difluoromethoxy-1H-indol-3-yl)-amide]2-(3-chloro-2-fluoro-benzylamide]	66 nM
NC(=O)n1cc(NC(=O)N2CCC[C@H]2C(=O)Nc2cccc(OC(F)(F)F)c2)c2ccc(O)cc21 [Example 369, (S)-Pyrrolidine-1,2-dicarboxylic acid 1-[(1-carbamoyl-6-hydroxy-1H-indol-3-yl)-amide]2-[(3-trifluoromethoxy-phenyl)-amide]]	850 nM
NC(=O)n1cc(NC(=O)N2CCC[C@H]2C(=O)Nc2cccc(OC(F)(F)F)c2)c2cc(O)ccc21 [Example 370, (S)-Pyrrolidine-1,2-dicarboxylic acid 1-[(1-carbamoyl-5-hydroxy-1H-indol-3-yl)-amide]2-[(3-trifluoromethoxy-phenyl)-amide]]	95 nM
NC(=O)n1cc(NC(=O)N2[C@@H]3C[C@@H]3C[C@H]2C(=O)NCc2cccc(Cl)c2F)c2cc(O)ccc21 [Example 371, (1R,3S,5R)-2-aza-bicyclo[3.1.0]hexane-2,3-dicarboxylic acid 2-[(1-carbamoyl-5-hydroxy-1H-indol-3-yl)-amide]3-(3-chloro-2-fluoro-benzylamide)]	3 nM
NC(=O)n1cc(NC(=O)N2[C@@H]3C[C@@H]3C[C@H]2C(=O)NCc2ccccc2F)c2cc(O)ccc21 [Example 372, (1R,3S,5R)-2-Aza-bicyclo[3.1.0]hexane-2,3-dicarboxylic acid 2-[(1-carbamoyl-5-hydroxy-1H-indol-3-yl)-amide]3-(2-fluoro-benzylamide)]	45 nM
N#CCOc1ccc2c(c1)c(NC(=O)N1[C@@H]3C[C@@H]3C[C@H]1C(=O)NCc1cccc(Cl)c1F)cn2C(N)=O [Example 373, 1R,3S,5R)-2-Aza-bicyclo[3.1.0]hexane-2,3-dicarboxylic acid 2-[(1-carbamoyl-5-cyanomethoxy-1H-indol-3-yl)-amide]3-(3-chloro-2-fluoro-benzylamide]	1 nM
NC(=O)n1cc(NC(=O)N2[C@@H]3C[C@@H]3C[C@H]2C(=O)NCc2cccc(Cl)c2F)c2cc(OCC(=O)O)ccc21 [Example 374, (1-Carbamoyl-3-{[(1R,3S,5R)-3-(3-chloro-2-fluoro-benzylcarbamoyl)-2-aza-bicyclo[3.1.0]hexane-2-carbonyl]-amino}-1H-indol-5-yloxy)-acetic acid]	3 nM
C[C@@]1(F)C[C@@H](C(=O)NCc2cccc(Cl)c2F)N(C(=O)Nc2cn(C(N)=O)c3ccc(OCC(=O)O)cc23)C1 [Example 375, (1-Carbamoyl-3-{[(2S,4R)-2-(3-chloro-2-fluoro-benzylcarbamoyl)-4-fluoro-4-methyl-pyrrolidine-1-carbonyl]-amino}-1H-indol-5-yloxy)-acetic acid]	2 nM
NC(=O)n1cc(NC(=O)N2[C@@H]3C[C@@H]3C[C@H]2C(=O)NCc2cccc(Cl)c2F)c2ccc(OCC(=O)O)cc21 [Example 376, (1-Carbamoyl-3-{[(1R,3S,5R)-3-(3-chloro-2-fluoro-benzylcarbamoyl)-2-aza-bicyclo[3.1.0]hexane-2-carbonyl]-amino}-1H-indol-6-yloxy)-acetic acid]	247 nM
NC(=O)n1cc(NC(=O)N2[C@@H]3C[C@@H]3C[C@H]2C(=O)NCc2cccc(Cl)c2F)c2cc(CC(=O)O)ccc21 [Example 377, (1-Carbamoyl-3-{[(1R,3S,5R)-3-(3-chloro-2-fluoro-benzylcarbamoyl)-2-aza-bicyclo[3.1.0]hexane-2-carbonyl]-amino}-1H-indol-5-yl)-acetic acid]	20 nM
NC(=O)n1cc(NC(=O)N2[C@@H]3C[C@@H]3C[C@H]2C(=O)NCc2cccc(Cl)c2F)c2ccc(CC(=O)O)cc21 [Example 378, (1-Carbamoyl-3-{[(1R,3S,5R)-3-(3-chloro-2-fluoro-benzylcarbamoyl)-2-aza-bicyclo[3.1.0]hexane-2-carbonyl]-amino}-1H-indol-6-yl)-acetic acid]	24 nM
NC(=O)n1cc(NC(=O)N2[C@@H]3C[C@@H]3C[C@H]2C(=O)NCc2cccc(Cl)c2F)c2cc(OCCO)ccc21 [Example 379, (1R,3S,5R)-2-aza-bicyclo[3.1.0]hexane-2,3-dicarboxylic acid 2-{[1-carbamoyl-5-(2-hydroxy-ethoxy)-1H-indol-3-yl]-amide}3-(3-chloro-2-fluoro-benzylamide)]	5 nM
NC(=O)n1cc(NC(=O)N2CCS[C@H]2C(=O)NCc2cccc(Cl)c2F)c2cc(OCCO)ccc21 [Example 380, S)-Thiazolidine-2,3-dicarboxylic acid 3-{[1-carbamoyl-5-(2-hydroxy-ethoxy)-1H-indol-3-yl]-amide}2-(3-chloro-2-fluoro-benzylamide]	17 nM
NC(=O)n1cc(NC(=O)N2[C@@H]3C[C@@H]3C[C@H]2C(=O)Nc2cccc(OC(F)(F)F)c2)c2cc(OCCO)ccc21 [Example 381, (1R,3S,5R)-2-Aza-bicyclo[3.1.0]hexane-2,3-dicarboxylic acid 2-{[1-carbamoyl-5-(2-hydroxy-ethoxy)-1H-indol-3-yl]-amide}3-[(3-trifluoromethoxy-phenyl)-amide]]	57 nM
C[C@@]1(F)C[C@@H](C(=O)NCc2cccc(Cl)c2F)N(C(=O)Nc2cn(C(N)=O)c3ccc(OCCO)cc23)C1 [Example 383, 2S,4R)-4-Fluoro-4-methyl-pyrrolidine-1,2-dicarboxylic acid 1-{[1-carbamoyl-5-(2-hydroxy-ethoxy)-1H-indol-3-yl]-amide}2-(3-chloro-2-fluoro-benzylamide]	4 nM
NC(=O)n1cc(NC(=O)N2[C@@H]3C[C@@H]3C[C@H]2C(=O)NCc2cccc(Cl)c2F)c2ccc(CCO)cc21 [Example 384, 1R,3S,5R)-2-Aza-bicyclo[3.1.0]hexane-2,3-dicarboxylic acid 2-{[1-carbamoyl-6-(2-hydroxy-ethyl)-1H-indol-3-yl]-amide}3-(3-chloro-2-fluoro-benzylamide]	32 nM
NC(=O)n1cc(NC(=O)N2[C@@H]3C[C@@H]3C[C@H]2C(=O)NCc2cccc(Cl)c2F)c2cc(CCO)ccc21 [Example 385, 1R,3S,5R)-2-Aza-bicyclo[3.1.0]hexane-2,3-dicarboxylic acid 2-{[1-carbamoyl-5-(2-hydroxy-ethyl)-1H-indol-3-yl]-amide}3-(3-chloro-2-fluoro-benzylamide]	7 nM
CC(C)(O)COc1ccc2c(c1)c(NC(=O)N1C3CC3C[C@H]1C(=O)NCc1cccc(Cl)c1F)cn2C(N)=O (stereo partly drawn) [Example 386, 1R,3S,5R)-2-Aza-bicyclo[3.1.0]hexane-2,3-dicarboxylic acid 2-{[1-carbamoyl-5-(2-hydroxy-2-methyl-propoxy)-1H-indol-3-yl]-amide}3-(3-chloro-2-fluoro-benzylamide]	8 nM
CN(C)CCOc1ccc2c(c1)c(NC(=O)N1[C@@H]3C[C@@H]3C[C@H]1C(=O)NCc1cccc(Cl)c1F)cn2C(N)=O [Example 387, 1R,3S,5R)-2-Aza-bicyclo[3.1.0]hexane-2,3-dicarboxylic acid 2-{[1-carbamoyl-5-(2-dimethylamino-ethoxy)-1H-indol-3-yl]-amide}3-(3-chloro-2-fluoro-benzylamide]	57 nM
NC(=O)n1cc(NC(=O)N2[C@@H]3C[C@@H]3C[C@H]2C(=O)NCc2cccc(Cl)c2F)c2cc(OCCN3CCCC3)ccc21 [Example 388, 1R,3S,5R)-2-Aza-bicyclo[3.1.0]hexane-2,3-dicarboxylic acid 2-{[1-carbamoyl-5-(2-pyrrolidin-1-yl-ethoxy)-1H-indol-3-yl]-amide}3-(3-chloro-2-fluoro-benzylamide]	28 nM
